# Measured values taken from US10189842B2 (Agency for Science, Technology and Research, priority 2013, dated 2019).
# Read-outs that look alike come from different tables or passages of the source.
# Legend:
# mammalian PORCN = assay: PORCN-null HT1080 cells transfected with mammalian PORCN, WNT3A, STF reporter; type: cell-based; conditions: luciferase, FIG. 1
# Procedure: PORCN-null HT1080 cells were transfected with mammalian or Xenopus PORCN expression plasmids, along with WNT3A, STF reporter and mCherry as transfection control. 6 hours after transfection, cells were treated with the compounds or DMSO as indicated, and the following day assayed for luciferase. Xenopus PORCN was resistant to the inhibitory effects of compounds.
# MMTV-Wnt1 tumor = assay: MMTV-Wnt1 mouse model; type: in vivo; conditions: for % T/C / % TGI / NTRD / T/C / TRD: Day 14; for tumor growth: treated mice, FIG. 2 and FIG. 3
# Procedure: 8-10 weeks old Female BALBc mice were anesthetised with 150 mg/kg Ketamine+75 mg/kg Xylazine. Under aseptic conditions, skin near the 4th mammary fat pad was incised. Mammary fat pad was tweaked with forceps and tumor fragment ˜2 mm^3 was implanted. The incision was closed using a tissue adhesive. Animals were randomised into groups of eight and treated daily with the test compounds for 14 days. Tumors were measured in two dimensions using calipers, and volume was calculated using the formula: Tumor Volume (mm^3)=[…]. Maximum tumor volume limit was 2000 mm^3.
# HPAF-II cells = assay: Soft agar assay, HPAF-II; type: cell-based; conditions: for IC50: Homo sapiens
# Procedure: (§1) AsPC-1 cells were maintained in RPMI164 supplemented with 10% FBS, 2 mM L-glutamine and P/S (100 units/ml penicillin and 100 μg/ml streptomycin). HPAF-II cells were maintained in MEM (Eagles′) supplemented with 10% FBS, 2 mM L-glutamine and P/S (100 units/ml penicillin and 100 μg/ml streptomycin). CFPAC-1 cells were maintained in Iscove MEM supplemented with 10% FBS, 2 mM L-glutamine and P/S (100 units/ml penicillin and 100 μg/ml streptomycin).
# (§2) 600 μl of 0.6% agar was added to 24-well plate to form the base layer. Then a middle layer of 0.36% agar (containing 5000 cells and serially diluted compound) was added on to the base layer. Finally 500 μl of fresh growth medium was added to the top of the middle layer. The plates were incubated at 37° C. with 5% carbon dioxide in a humidified incubator for 2 weeks. Formation of colonies was observed using a light microscope. When the colony size was larger than 500 μm, 70 μl MTT (5 mg/ml) was added to each well and the plates were incubated at 37° C. for at least 2 hours. Colonies were counted with GelCount® instrument. The colony counts were plotted against compound concentrations using the GraphPad Prism software. The software was also used to perform non-linear curve fitting and calculation of compound concentration that inhibited 50% colony formation.
# AsPC-1 cells = assay: Soft agar assay, AsPC-1; type: cell-based; conditions: for IC50: Homo sapiens, ASPC1
# Procedure: as §1, §2
# V5-tagged Wnt3a = assay: Wnt3A palmitoylation assay; type: cell-based; conditions: 100 nM compound, HeLa cells, FIG. 4
# Source text: Wnt3A Palmitoylation Assay:
# The assay used to determine the inhibition of the palmitoylation of Wnts by compound was described by Yap et al, (Yap MC, Kostiuk MA, Martin DD, Perinpanayagam MA, Hak PG, Siddam A, Majjigapu JR, Rajaiah G, Keller BO, Prescher JA, Wu P, Bertozzi CR, Falck JR, Berthiaume LG. 2010. Rapid and selective detection of fatty acylated proteins using omega-alkynyl-fatty acids and click chemistry. J Lipid Res. 51(6):1566-1580) with some modification. 3×10^6 HeLa cells were seeded in 10 cm culture dish and incubated at 37° C. overnight. […] After six hours, the cells were washed with PBS and treated with 100 μM alkyne palmitate in medium with 5% BSA. 100 nM compound or DMSO was added and the cells were incubated overnight at 37° C. The cells were lyzed and 600 μg cell lysate was collected and incubated with anti-V5 antibody (Invitrogen) followed by the pull down of V5-Wnt3a with the addition of Protein A/G agarose beads (Thermo scientific). The pulled down lysates containing V5-Wnt3a was click-reacted with biotin-azide (Invitrogen). The biotin-labelled protein lysate was then separated on SDS-PAGE and transferred to a nitrocellulose membrane. The membrane was incubated with primary anti-V5 antibody, followed by secondary anti-mouse Dylight 680 (Thermo scientific) to detect V5-Wnt3a. […]
# HEK293-STF3A cells = assay: STF3A assay (luciferase reporter); type: cell-based, Human; conditions: Homo sapiens, 24 h, 1 day of treatment
# In short: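 HEK293 cells carrying the STF reporter and expressing Wnt3A, seeded 2×10^4 per well overnight, then treated 1 day with compound at final 50 μM to 1.5 nM. Luciferase activity read by luminescence after Steady-Glo reagent, 10 min at room temperature.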
# CFPAC-1 cells = assay: Soft agar assay, CFPAC-1; type: cell-based; conditions: for IC50: Homo sapiens
# Procedure: as §1, §2
smiles,measurement,setting,value
"Cc1cc2n(n1)CCCN2C(=O)CCC(=O)Nc1ccc(-c2cccnc2)nn1 [Compound 51, 4-(2-methyl-6,7-dihydropyrazolo[1,5-a]pyrimidin-4(5H)-yl)-4-oxo-N-(6-(pyridin-3-yl)pyridazin-3-yl)butanamide]",inhibition of the activity of mammalian porcupine,mammalian PORCN,inhibit the activity of mammalian porcupine
same,% T/C,MMTV-Wnt1 tumor; 1 mg/Kg daily,37.5%
same,% TGI,MMTV-Wnt1 tumor; 1 mg/Kg daily,68%
same,NTRD,MMTV-Wnt1 tumor; 1 mg/Kg daily,1/8
same,T/C,MMTV-Wnt1 tumor; 1 mg/Kg daily,0.375
same,TRD,MMTV-Wnt1 tumor; 1 mg/Kg daily,0/8
same,% T/C,MMTV-Wnt1 tumor; 3 mg/Kg daily,38.3%
same,% TGI,MMTV-Wnt1 tumor; 3 mg/Kg daily,67%
same,NTRD,MMTV-Wnt1 tumor; 3 mg/Kg daily,0/8
same,T/C,MMTV-Wnt1 tumor; 3 mg/Kg daily,0.383
same,TRD,MMTV-Wnt1 tumor; 3 mg/Kg daily,0/8
same,% T/C,MMTV-Wnt1 tumor; 10 mg/Kg daily,16.0%
same,% TGI,MMTV-Wnt1 tumor; 10 mg/Kg daily,91%
same,NTRD,MMTV-Wnt1 tumor; 10 mg/Kg daily,0/8
same,T/C,MMTV-Wnt1 tumor; 10 mg/Kg daily,0.160
same,TRD,MMTV-Wnt1 tumor; 10 mg/Kg daily,0/8
same,tumor growth,MMTV-Wnt1 tumor,decreased tumor growth in all the treated mice
same,Maximum inhibition,HPAF-II cells,97%
same,IC50,"HPAF-II cells; Test 1, read-out: Test 1 IC50 (colony growth inhibitory concentration)",8 nM
same,IC50,"HPAF-II cells; Test 2, read-out: Test 2 IC50 (colony growth inhibitory concentration)",10 nM
same,IC50,"HPAF-II cells; mean of two independent experiments, read-out: Mean IC50 (colony growth inhibitory concentration)",9 nM
same,Maximum inhibition,AsPC-1 cells; AsPC-1,76%
same,IC50,"AsPC-1 cells; AsPC-1, Test 1, read-out: Test 1 IC50 (colony growth inhibitory concentration)",24 nM
same,IC50,"AsPC-1 cells; AsPC-1, Test 2, read-out: Test 2 IC50 (colony growth inhibitory concentration)",10 nM
same,IC50,"AsPC-1 cells; AsPC-1, mean of two independent experiments, read-out: Mean IC50 (colony growth inhibitory concentration)",17 nM
same,Palmitoylation of Wnt3a,V5-tagged Wnt3a,inhibited
same,IC50,HEK293-STF3A cells,< 100 nM
same,Maximum inhibition,CFPAC-1 cells; CFPAC-1,79%
same,IC50,"CFPAC-1 cells; CFPAC-1, Test 1, read-out: Test 1 IC50 (colony growth inhibitory concentration)",58 nM
same,IC50,"CFPAC-1 cells; CFPAC-1, Test 2, read-out: Test 2 IC50 (colony growth inhibitory concentration)",39 nM
same,IC50,"CFPAC-1 cells; CFPAC-1, mean of two independent experiments, read-out: Mean IC50 (colony growth inhibitory concentration)",49 nM
"Cc1cncc(-c2ccc(NC(=O)CCC(=O)N3CCCn4nc(C)cc43)cn2)c1 [Compound 110, N-(5′-methyl-2,3′-bipyridin-5-yl)-4-(2-methyl-6,7-dihydropyrazolo[1,5-a]pyrimidin-4(5H)-yl)-4-oxobutanamide]",inhibition of the activity of mammalian porcupine,mammalian PORCN,inhibit the activity of mammalian porcupine
same,tumor growth,MMTV-Wnt1 tumor,decreased tumor growth in all the treated mice
same,IC50,HEK293-STF3A cells,< 100 nM
"Cc1cc2n(n1)CC(C)CN2C(=O)CCC(=O)Nc1ccc(-c2ccc(F)cn2)cn1 (stereo not drawn) [Compound 164, 4-(2,6-dimethyl-6,7-dihydropyrazolo[1,5-a]pyrimidin-4(5H)-yl)-N-(5-fluoro-[2,3′-bipyridin]-6′-yl)-4-oxobutanamide]",IC50,HEK293-STF3A cells,< 1000 nM
"Cc1cc2n(n1)CC(C)CN2C(=O)CCC(=O)Nc1cc(F)c(-c2cccnc2)cn1 (stereo not drawn) [Compound 165, 4-(2,6-dimethyl-6,7-dihydropyrazolo[1,5-a]pyrimidin-4(5H)-yl)-N-(4-fluoro-[3,3′-bipyridin]-6-yl)-4-oxobutanamide]",IC50,HEK293-STF3A cells,< 100 nM
"Cc1cc2n(n1)CCCN2C(=O)CCC(=O)Nc1ccc(-c2cnccn2)nc1 [Compound 166, 4-(2-methyl-6,7-dihydropyrazolo[1,5-a]pyrimidin-4(5H)-yl)-4-oxo-N-(6-(pyrazin-2-yl)pyridin-3-yl)butanamide]",IC50,HEK293-STF3A cells,< 1000 nM
"Cc1cc2n(n1)CC(C)CN2C(=O)CCC(=O)Nc1ccc(-c2cncc(F)c2)nn1 (stereo not drawn) [Compound 167, 4-(2,6-dimethyl-6,7-dihydropyrazolo[1,5-a]pyrimidin-4(5H)-yl)-N-(6-(5-fluoropyridin-3-yl)pyridazin-3-yl)-4-oxobutanamide]",IC50,HEK293-STF3A cells,< 100 nM
"Cc1cncc(-c2ncc(NC(=O)CCC(=O)N3CCCn4nc(C)cc43)cc2C)c1 [Compound 168, N-(3,5′-dimethyl-[2,3′-bipyridin]-5-yl)-4-(2-methyl-6,7-dihydropyrazolo[1,5-a]pyrimidin-4(5H)-yl)-4-oxobutanamide]",IC50,HEK293-STF3A cells,< 1000 nM
"Cc1cc2n(n1)C[C@@H](C)CN2C(=O)CCC(=O)Nc1ccc(-c2cccnc2)cn1 [Compound 169, N-(3,3′-bipyridin-6-yl)-4-(2,6-dimethyl-6,7-dihydropyrazolo[1,5-a]pyrimidin-4(5H)-yl)-4-oxobutanamide]",IC50,HEK293-STF3A cells,< 100 nM
"Cc1cc2n(n1)C[C@H](C)CN2C(=O)CCC(=O)Nc1ccc(-c2cccnc2)cn1 [Compound 170, N-(3,3′-bipyridin-6-yl)-4-(2,6-dimethyl-6,7-dihydropyrazolo[1,5-a]pyrimidin-4(5H)-yl)-4-oxobutanamide]",IC50,HEK293-STF3A cells,< 100 nM
"Cc1cc2n(n1)CC(C)CN2C(=O)CCC(=O)Nc1ccc(-c2ccccn2)cn1 (stereo not drawn) [Compound 171, N-([2,3′-bipyridin]-6′-yl)-4-(2,6-dimethyl-6,7-dihydropyrazolo[1,5-a]pyrimidin-4(5H)-yl)-4-oxobutanamide]",IC50,HEK293-STF3A cells,< 100 nM
